According to ChEMBL document CHEMBL3603744, “Structure activity relationship of C-2 ether substituted 1,5-naphthyridine analogs of oxabicyclooctane-linked novel bacterial topoisomerase inhibitors as broad-spectrum antibacterial agents (Part-5)” (Bioorg Med Chem Lett, 2015):
≈ marks a conversion by molar mass, not a printed value. Calls of active or inactive are those of the source. The rule behind the calls is not given here.

How the values were obtained:
Enterococcus faecium = assay: Antimicrobial activity against vancomycin-resistant Enterococcus faecium VanA by micro broth dilution or agar based method; assay type: functional
Staphylococcus aureus [1] = assay: Resistance index, ratio of MIC for quinolone-resistant Staphylococcus aureus MS5935 to MIC for quinolone-[…]; assay type: functional
Pseudomonas aeruginosa = assay: Antimicrobial activity against Pseudomonas aeruginosa PAO1 by micro broth dilution or agar based method; assay type: functional
Escherichia coli = assay: Antimicrobial activity against Escherichia coli ATCC 25922 by micro broth dilution or agar based method; assay type: functional
Staphylococcus aureus [2] = assay: Antimicrobial activity against Staphylococcus aureus Smith by micro broth dilution or agar based method; assay type: functional
Acinetobacter baumannii = assay: Antimicrobial activity against Acinetobacter baumannii IID876 by micro broth dilution or agar based method; assay type: functional
Streptococcus pneumoniae = assay: Antimicrobial activity against Streptococcus pneumoniae IID553 by micro broth dilution or agar based method; assay type: functional
Staphylococcus aureus [3] = assay: Antimicrobial activity against methicillin-resistant Staphylococcus aureus OIT971 by micro broth dilution or agar based method; assay type: functional, organism-based
Staphylococcus aureus [4] = assay: Antimicrobial activity against Staphylococcus aureus infected in orally dosed mouse bacteremia survival model; assay type: functional; settings: po
Staphylococcus aureus [5] = assay: Antimicrobial activity against Staphylococcus aureus infected in iv dosed mouse bacteremia survival model; assay type: functional
[6] = Half life in C57BL/6 mouse at 2 mg/kg, iv or 5 mg/kg, po; assay type: ADME, organism-based; settings: in vivo
[7] = Plasma clearance in Sprague-Dawley rat at 2 mg/kg, iv or 5 mg/kg, po; assay type: ADME, organism-based
Rattus norvegicus = assay: Dose normalized AUC in Sprague-Dawley rat at 2 mg/kg, iv or 5 mg/kg, po; assay type: ADME, organism-based; settings: in vivo
[8] = Half life in Sprague-Dawley rat at 2 mg/kg, iv or 5 mg/kg, po; assay type: ADME, organism-based; settings: in vivo
[9] = Volume of distribution at steady state in C57BL/6 mouse at 2 mg/kg, iv or 5 mg/kg, po; assay type: ADME, organism-based; settings: in vivo, read-out: Vdss
[10] = Oral bioavailability in C57BL/6 mouse at 5 mg/kg; assay type: ADME, organism-based; settings: in vivo
Mus musculus = assay: Dose normalized AUC in C57BL/6 mouse at 2 mg/kg, iv or 5 mg/kg, po; assay type: ADME, organism-based; settings: in vivo
[11] = Plasma clearance in C57BL/6 mouse at 2 mg/kg, iv or 5 mg/kg, po; assay type: ADME, organism-based
[12] = Volume of distribution at steady state in Sprague-Dawley rat at 2 mg/kg, iv or 5 mg/kg, po; assay type: ADME, organism-based; settings: in vivo, read-out: Vdss
[13] = Oral bioavailability in Sprague-Dawley rat at 5 mg/kg; assay type: ADME, organism-based; settings: in vivo
Staphylococcus aureus [14] = assay: Antimicrobial activity against quinolone-resistant Staphylococcus aureus MS5935; assay type: functional
Staphylococcus aureus [15] = assay: Antimicrobial activity against quinolone-sensitive Staphylococcus aureus MS5935

In the case of `C=CCOc1ccc2ncc(F)c(CCC34CCC(NCc5ccc6c(n5)NC(=O)CO6)(CC3)CO4)c2n1`, the MIC (Enterococcus faecium) is reported as 8 µg/mL (≈ 15.4 µM), the Ratio (Staphylococcus aureus [1]) is reported as <4 and the MIC (Pseudomonas aeruginosa) is reported as 16 µg/mL (≈ 30.8 µM). For the same molecule, the MIC (Escherichia coli) was 8 µg/mL (≈ 15.4 µM), the MIC (Staphylococcus aureus [2]) was 0.063 µg/mL (≈ 0.121 µM) and the MIC (Acinetobacter baumannii) was 2 µg/mL (≈ 3.85 µM). The MIC (Streptococcus pneumoniae) was 1 µg/mL (≈ 1.92 µM) and the “growth inhibition (GI)” value (Staphylococcus aureus [3]) was “Active”.

Molecule `COc1ccc2ncc(F)c(C[C@H](O)C34CCC(NCc5ccc6c(n5)NC(=O)CO6)(CC3)CO4)c2n1.Cl` has an ED50 (Staphylococcus aureus [4]) of 2.2 mg/kg and an ED50 (Staphylococcus aureus [5]) of 2.5 mg/kg.

With `O=C1COc2ccc(CNC34CCC(CCc5c(F)cnc6ccc(OCCOCCO)nc56)(CC3)OC4)nc2N1` the MIC (Enterococcus faecium) was 16 µg/mL (≈ 28.2 µM), the Ratio (Staphylococcus aureus [1]) was <4 and the MIC (Pseudomonas aeruginosa) was 32 µg/mL (≈ 56.4 µM). It also gave an MIC (Escherichia coli) of 32 µg/mL (≈ 56.4 µM), an MIC (Staphylococcus aureus [2]) of 0.25 µg/mL (≈ 0.44 µM) and an MIC (Acinetobacter baumannii) of 16 µg/mL (≈ 28.2 µM). The MIC (Streptococcus pneumoniae) was 4 µg/mL (≈ 7.05 µM) and the “growth inhibition (GI)” value (Staphylococcus aureus [3]) was “Active”.

In the case of `Cl.NCCCOc1ccc2ncc(F)c(CCC34CCC(NCc5ccc6c(n5)NC(=O)CO6)(CC3)CO4)c2n1`, the ED50 (Staphylococcus aureus [4]) is reported as > 50 mg/kg and the ED50 (Staphylococcus aureus [5]) is reported as 15 mg/kg.

`COCCOc1ccc2ncc(F)c(CCC34CCC(NCc5ccc6c(n5)NC(=O)CO6)(CC3)CO4)c2n1.Cl` gave an ED50 (Staphylococcus aureus [5]) of 7.2 mg/kg.

With `COc1ccc2ncc(F)c(CCC34CCC(NCc5ccc6c(n5)NC(=O)CO6)(CC3)CO4)c2n1.Cl` the ED50 (Staphylococcus aureus [4]) was 17 mg/kg and the ED50 (Staphylococcus aureus [5]) was 5.5 mg/kg.

With `CC(C)COc1ccc2ncc(F)c(CCC34CCC(NCc5ccc6c(n5)NC(=O)CO6)(CC3)CO4)c2n1` the MIC (Enterococcus faecium) was 4 µg/mL (≈ 7.47 µM), the Ratio (Staphylococcus aureus [1]) was <4 and the MIC (Pseudomonas aeruginosa) was 16 µg/mL (≈ 29.9 µM). For the same molecule, the MIC (Escherichia coli) was 16 µg/mL (≈ 29.9 µM), the MIC (Staphylococcus aureus [2]) was 0.063 µg/mL (≈ 0.118 µM) and the MIC (Acinetobacter baumannii) was 2 µg/mL (≈ 3.73 µM). For the same molecule, the MIC (Streptococcus pneumoniae) was 0.25 µg/mL (≈ 0.467 µM) and the “growth inhibition (GI)” value (Staphylococcus aureus [3]) was “Active”.

Molecule `Cl.O=C1COc2ccc(CNC34CCC(CCc5c(F)cnc6ccc(OCCCO)nc56)(CC3)OC4)nc2N1` has a half-life [6] of 1.5 h, an ED50 (Staphylococcus aureus [4]) of 15 mg/kg and a clearance [7] of 33.2 mL/min/kg. For the same molecule, the AUC/dose (Rattus norvegicus) was 1.9 µM·h/mg/kg, the half-life [8] was 0.58 h and the Vd [9] was 1.46 L/kg. For the same molecule, the bioavailability [10] was 16%, the ED50 (Staphylococcus aureus [5]) was 5.9 mg/kg and the AUC/dose (Mus musculus) was 1.6 µM·h/mg/kg. The clearance [11] was 38.7 mL/min/kg, the Vd [12] was 0.84 L/kg and the bioavailability [13] was 49%.

In the case of `Cl.O=C1COc2ccc(CNC34CCC(CCc5c(F)cnc6ccc(OCCCCCO)nc56)(CC3)OC4)nc2N1`, the ED50 (Staphylococcus aureus [4]) is reported as 43 mg/kg and the ED50 (Staphylococcus aureus [5]) is reported as 21 mg/kg.

For `CN(C)C(=O)COc1ccc2ncc(F)c(CCC34CCC(NCc5ccc6c(n5)NC(=O)CO6)(CC3)CO4)c2n1`, the MIC (Enterococcus faecium) was 16 µg/mL (≈ 28.3 µM), the Ratio (Staphylococcus aureus [1]) was <4 and the MIC (Pseudomonas aeruginosa) was 16 µg/mL (≈ 28.3 µM). For the same molecule, the MIC (Escherichia coli) was 16 µg/mL (≈ 28.3 µM), the MIC (Staphylococcus aureus [2]) was 1 µg/mL (≈ 1.77 µM) and the MIC (Acinetobacter baumannii) was 16 µg/mL (≈ 28.3 µM). The MIC (Streptococcus pneumoniae) was 4 µg/mL (≈ 7.08 µM) and the “growth inhibition (GI)” value (Staphylococcus aureus [3]) was “Active”.

With `Cl.O=C1COc2ccc(CNC34CCC([C@@H](O)Cc5c(F)cnc6ccc(OCCCO)nc56)(CC3)OC4)nc2N1` the ED50 (Staphylococcus aureus [4]) was > 50 mg/kg and the ED50 (Staphylococcus aureus [5]) was 5.5 mg/kg.

With `C[C@H]1COc2c(N3CCN(C)CC3)c(F)cc3c(=O)c(C(=O)O)cn1c23.C[C@H]1COc2c(N3CCN(C)CC3)c(F)cc3c(=O)c(C(=O)O)cn1c23.O` [LEVOFLOXACIN] the Ratio (Staphylococcus aureus [1]) was >64, the MIC (Staphylococcus aureus [14]) was > 16 µg/mL and the MIC (Staphylococcus aureus [15]) was 0.25 µg/mL.

With `CC(C)Oc1ccc2ncc(F)c(CCC34CCC(NCc5ccc6c(n5)NC(=O)CO6)(CC3)CO4)c2n1` the MIC (Enterococcus faecium) was 8 µg/mL (≈ 15.3 µM), the Ratio (Staphylococcus aureus [1]) was <4 and the MIC (Pseudomonas aeruginosa) was 32 µg/mL (≈ 61.4 µM). It also gave an MIC (Escherichia coli) of 16 µg/mL (≈ 30.7 µM), an MIC (Staphylococcus aureus [2]) of 0.25 µg/mL (≈ 0.479 µM) and an MIC (Acinetobacter baumannii) of 8 µg/mL (≈ 15.3 µM). The MIC (Streptococcus pneumoniae) was 2 µg/mL (≈ 3.83 µM) and the “growth inhibition (GI)” value (Staphylococcus aureus [3]) was “Active”.

For `NCCCCCOc1ccc2ncc(F)c(CCC34CCC(NCc5ccc6c(n5)NC(=O)CO6)(CC3)CO4)c2n1`, the MIC (Enterococcus faecium) was 8 µg/mL (≈ 14.2 µM), the Ratio (Staphylococcus aureus [1]) was <4 and the MIC (Pseudomonas aeruginosa) was 16 µg/mL (≈ 28.3 µM). The MIC (Escherichia coli) was 4 µg/mL (≈ 7.08 µM), the MIC (Staphylococcus aureus [2]) was 0.5 µg/mL (≈ 0.885 µM) and the MIC (Acinetobacter baumannii) was 4 µg/mL (≈ 7.08 µM). For the same molecule, the MIC (Streptococcus pneumoniae) was 1 µg/mL (≈ 1.77 µM) and the “growth inhibition (GI)” value (Staphylococcus aureus [3]) was “Active”.

With `CNC(=O)COc1ccc2ncc(F)c(CCC34CCC(NCc5ccc6c(n5)NC(=O)CO6)(CC3)CO4)c2n1` the MIC (Enterococcus faecium) was 4 µg/mL (≈ 7.26 µM), the Ratio (Staphylococcus aureus [1]) was <4 and the MIC (Pseudomonas aeruginosa) was 16 µg/mL (≈ 29.1 µM). The MIC (Escherichia coli) was 16 µg/mL (≈ 29.1 µM), the MIC (Staphylococcus aureus [2]) was 0.125 µg/mL (≈ 0.227 µM) and the MIC (Acinetobacter baumannii) was 4 µg/mL (≈ 7.26 µM). The MIC (Streptococcus pneumoniae) was 0.5 µg/mL (≈ 0.908 µM) and the “growth inhibition (GI)” value (Staphylococcus aureus [3]) was “Active”.

In the case of `Cl.O=C1COc2ccc(CNC34CCC(CCc5c(F)cnc6ccc(OCCO)nc56)(CC3)OC4)nc2N1`, the ED50 (Staphylococcus aureus [4]) is reported as > 50 mg/kg and the ED50 (Staphylococcus aureus [5]) is reported as 13 mg/kg.
